Measured values from US6395768B1, “Uses for indole-3-propionic acids and salts and esters thereof” (South Alabama Medical Science Foundation, priority 1998, dated 2002).

Tests used:
[1] = test system: human neuroblastoma cell line SK-N-SH; test: Cytoprotection against Aβ(25-35) toxicity, cell viability; type: cell-based; settings: SK-N-SH cells, 50 μM Aβ (25-35), 50 μM compound; FIG. 1
Protocol: To illustrate the cytoprotective affects of IPA against the cytotoxic effects of Aβ, cells of the human neuroblastoma cell line SK-N-SH were used. These cells were exposed to 50 μM Aβ (25-35), the actively toxic fragment of Aβ (Yankner et al., 1990) with or without 50 μM of IPA. As a control, the experiments were repeated without Aβ. As a positive control, the well-known anti-oxidant, phenyl-N-t-butylnitrone (“PBN”) was substituted for IPA.

[2] = test system: PC12 cells; test: Lipid peroxidation (malondialdehyde levels) in cells exposed to Aβ or DDTC; type: cell-based, rat; settings: PC12 cells exposed to amyloid peptide Aβ(1-42) or DDTC, with IPA; FIG. 4
Description: In order to investigate the possibility that the cytoprotective properties of IPA are also the result, at least in part, of anti-oxidant activity, the -levels of malondialdehyde (“MDA”), a marker of lipid peroxidation, in PC12 cells exposed to Aβ or to oxidative stress were examined. Oxidative stress was delivered by exposing cells to […] (“DDTC”), an inhibitor of superoxide dismutase and an established model of oxidative injury. The PC12 cells were exposed to either amyloid peptide alone or amyloid peptide along with IPA. In other experiments, the cells were exposed to either DDTC alone or DDTC with IPA.

[3] = test system: PC12 neuroblastoma cells; test: Prevention of cell death induced by oxidative stress (DDTC, superoxide dismutase inhibition); type: cell-based, rat; settings: varying amounts of DDTC and IPA, FIG. 5
Protocol: To further confirm the observations shown in Example 4, we studied whether IPA was effective in preventing death of cells exposed to oxidative stress (DDTC). PC12 neuroblastoma cells were treated with varying amounts of DDTC, with or without varying amounts of IPA. The anti-oxidant activity of IPA is shown by preventing cell death of neurblastoma cells induced by inhibition of the superoxide dismutase by DDTC.

[4] = target: Aβ (1-40) (Homo sapiens, UniProt P05067); test: Aβ fibrillogenesis, thioflavin T fluorescence (β sheet formation); type: biochemical; settings: 150 μM Aβ (1-40), 300 μM IPA, sodium salt
Chain of Aβ (1-40) (P05067 672-711): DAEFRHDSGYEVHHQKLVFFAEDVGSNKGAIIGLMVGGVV
Protocol: As a control, the ultrapure water used to dissolve the IPA containing an equivalent amount of sodium chloride was added to 150 μM Aβ (1-40) at a pH of 7. In one experiment, each of the solutions (i.e., the solution containing IPA and the control solution) was incubated for 24 hours. In a second experiment, each of the solutions was incubated for 48 hours. At the end of each incubation period, 50 mM glycine-NaOH buffer (pH 9.2) containing 2 μM thioflavin T was added to each sample (5 μL) to a final volume of 2 mL. Fluorescence, which is a direct measure of β sheet formation, was measured at an excitation wavelength of 435 nm and an emission wavelength of 485 nm using a Hitachi F-2000 fluorescence spectrometer. The average and standard deviations of the mean of 3 samples per condition were determined, and the results are presented (as bar graphs) in FIG. 6A (24 hour incubation) and FIG. 6B (48 hour incubation).

Structure (SMILES) | protective activity against cytotoxic effect of Aβ (viability, percent) [1] | production of malondialdehyde (MDA), marker of lipid peroxidation [2] | survival of cells exposed to DDTC [3] | thioflavin T fluorescence (β sheet formation) relative to control ([4]; pH 7, 24 hour incubation, FIG. 6A) | thioflavin T fluorescence (β sheet formation) relative to control ([4]; pH 7, 48 hour incubation, FIG. 6B)
CC(C)(C)[N+]([O-])=Cc1ccccc1 [PBN, phenyl-N-t-butylnitrone] | strong protective activity |  |  |  | 
O=C(O)CCc1c[nH]c2ccccc12 [IPA, indole-3-propionic acid] |  | significantly decreases the production of malondialdehyde | increases the survival of cells exposed to DDTC | significantly less | significantly less
